Measurements taken from article PMC7109250, “Cloning and Functional Characterization of Three Odorant Receptors From the Chinese Citrus fly Bactrocera minax (Diptera: Tephritidae)” (Frontiers in Physiology, 2020).

What follows are compounds tested against T1, BminOR16 (Bactrocera minax, UniProt A0A6N0A5X5) (assay: two-electrode voltage clamp in Xenopus oocytes, mean current at […]).
T1 construct: gene OR16; full-length ORF (404 amino acid residues), GenBank MN537977; with BminOrco
T1 sequence (A0A6N0A5X5 1-405): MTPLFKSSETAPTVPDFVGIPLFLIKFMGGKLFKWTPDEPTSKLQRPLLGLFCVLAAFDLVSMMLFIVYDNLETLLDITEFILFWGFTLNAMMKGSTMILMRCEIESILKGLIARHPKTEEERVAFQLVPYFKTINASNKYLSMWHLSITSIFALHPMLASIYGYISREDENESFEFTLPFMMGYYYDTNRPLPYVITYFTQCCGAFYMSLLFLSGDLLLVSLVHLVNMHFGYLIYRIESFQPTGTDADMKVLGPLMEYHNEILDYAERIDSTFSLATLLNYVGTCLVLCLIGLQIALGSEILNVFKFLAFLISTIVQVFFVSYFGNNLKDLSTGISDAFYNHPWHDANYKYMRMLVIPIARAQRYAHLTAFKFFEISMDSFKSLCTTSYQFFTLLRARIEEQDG
T1 sequence (A0A3G2LEL3 1-517 partner): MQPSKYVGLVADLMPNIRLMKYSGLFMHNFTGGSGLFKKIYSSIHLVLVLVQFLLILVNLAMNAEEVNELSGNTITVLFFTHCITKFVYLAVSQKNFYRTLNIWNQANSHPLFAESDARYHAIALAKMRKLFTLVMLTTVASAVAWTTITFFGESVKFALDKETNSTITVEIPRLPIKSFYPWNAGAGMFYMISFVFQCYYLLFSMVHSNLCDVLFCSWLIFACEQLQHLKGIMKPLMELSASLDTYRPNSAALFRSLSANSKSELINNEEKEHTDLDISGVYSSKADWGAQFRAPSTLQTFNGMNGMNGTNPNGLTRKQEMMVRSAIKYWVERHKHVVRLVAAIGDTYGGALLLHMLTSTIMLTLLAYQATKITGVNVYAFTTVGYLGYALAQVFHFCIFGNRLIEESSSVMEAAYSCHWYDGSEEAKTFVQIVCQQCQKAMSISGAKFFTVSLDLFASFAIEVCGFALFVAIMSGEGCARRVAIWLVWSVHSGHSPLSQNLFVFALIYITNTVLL
Assay type: cell-based

For `CCCCCCCCCCCO` [compound 35, undecanol], the “two-electrode voltage clamp in Xenopus oocytes, mean current at 10^-4 M” value (“two-electrode voltage clamp” below) was 87 nA.

The compounds below were run against T2, BminOR3 (Bactrocera minax, UniProt A0A6N0A5L8) (assay: two-electrode voltage clamp in Xenopus oocytes co-expressing BminOR3/BminOrco, dose-response).
T2 construct: gene OR5; full-length ORF (450 amino acid residues), GenBank MN537976; with BminOrco
T2 sequence (A0A6N0A5L8 1-451): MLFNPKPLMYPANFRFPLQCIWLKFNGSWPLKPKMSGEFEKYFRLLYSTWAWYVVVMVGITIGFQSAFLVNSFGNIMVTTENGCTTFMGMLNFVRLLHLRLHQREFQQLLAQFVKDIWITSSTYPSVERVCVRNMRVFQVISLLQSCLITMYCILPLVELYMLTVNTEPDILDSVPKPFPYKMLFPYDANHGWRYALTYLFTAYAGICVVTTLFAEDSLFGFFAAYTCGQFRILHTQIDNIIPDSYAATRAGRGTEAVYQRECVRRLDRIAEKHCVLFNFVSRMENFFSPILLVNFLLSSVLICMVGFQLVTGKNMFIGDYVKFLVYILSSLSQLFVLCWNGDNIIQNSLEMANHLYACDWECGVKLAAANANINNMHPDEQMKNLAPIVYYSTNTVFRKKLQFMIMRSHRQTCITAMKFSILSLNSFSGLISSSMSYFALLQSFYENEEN
T2 sequence (A0A3G2LEL3 1-517 partner): T1 sequence (A0A3G2LEL3 1-517 partner)
Assay type: cell-based
Description: two-electrode voltage clamp in Xenopus oocytes co-expressing BminOR3/BminOrco, dose-response on BminOR3 | Dose-response curve of BminOR3/BminOrco Xenopus oocytes to 1-octen-3-ol.

Work on `C=CC(O)CCCCC` (stereo not shown) [compound 2, 1-octen-3-ol] yielded an EC50 of 347 nM.

The compounds below were run against T3, BminOR12 (Bactrocera minax, UniProt A0A6H1V5Y2) (assay: two-electrode voltage clamp in Xenopus oocytes, mean current at […]).
T3 construct: gene OR12; full-length ORF (415 amino acid residues), GenBank MN855530; with BminOrco
T3 sequence (A0A6H1V5Y2 1-415): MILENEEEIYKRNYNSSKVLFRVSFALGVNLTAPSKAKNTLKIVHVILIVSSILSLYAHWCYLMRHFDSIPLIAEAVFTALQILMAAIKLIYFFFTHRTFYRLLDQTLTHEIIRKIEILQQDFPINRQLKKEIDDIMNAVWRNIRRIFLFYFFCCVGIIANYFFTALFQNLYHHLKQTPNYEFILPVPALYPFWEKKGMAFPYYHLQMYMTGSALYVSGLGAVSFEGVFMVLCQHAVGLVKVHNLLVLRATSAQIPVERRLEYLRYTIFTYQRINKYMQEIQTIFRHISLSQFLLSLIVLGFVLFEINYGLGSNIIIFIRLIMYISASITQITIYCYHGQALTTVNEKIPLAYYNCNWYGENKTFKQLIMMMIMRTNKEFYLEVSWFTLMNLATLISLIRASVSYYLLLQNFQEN
T3 sequence (A0A3G2LEL3 1-517 partner): T1 sequence (A0A3G2LEL3 1-517 partner)
Assay type: cell-based
Description: The respective mean response values of these are | BminOR12/BminOrco responded to eight compounds: benzyl alcohol, (S)-(+)-carvone, 1-octanol, butyl propionate, butyl acrylate

Going from `O=Cc1ccccc1` [compound 9, benzaldehyde] to `OCc1ccccc1` [compound 16, benzyl alcohol], the “two-electrode voltage clamp” value falls from 94 nA to 33 nA.

First: COC(=O)c1ccccc1O [compound 10, methyl salicylate]
Second: C=C(C)[C@H]1CC=C(C)C(=O)C1 [compound 15, (S)-(+)-carvone]
The “two-electrode voltage clamp” value of the first is higher: 138 nA for the first, 34 nA for the second.

Going from `CCCCOC(=O)CC` [compound 31, butyl propionate] to `C=CC(=O)OCCCC` [compound 40, butyl acrylate], the “two-electrode voltage clamp” value rises from 60 nA to 63 nA.

Compared with `CCCCCCCCO` [compound 37, 1-octanol], `CC/C=C\CCOC(C)=O` [compound 43, (Z)-3-hexenyl acetate] is higher in “two-electrode voltage clamp” value: 46 nA for the first, 91 nA for the second.
